The source of these data is patent US8017629B2, “Compounds and uses thereof in modulating amyloid β” (Neurogenetic Pharmaceuticals, Inc., priority 2003, dated 2011).

The experiment has as its system Aβ42 levels in the extracellular medium. Put plainly: FRET (HTRF) assay, Aβ42 level of the extracellular medium of SH-SY5Y-APP cells. The format is cell-based. The settings on record: Homo sapiens, concentration at which reduction of Aβ42 level was half of the maximum reduction, read-out: Ab42 Potency. Here is the method: Compounds were evaluated for activity in modulating Aβ42 and Aβ40 levels in the extracellular medium using a homogeneous time-resolved fluorescence (HTRF) assay as follows.
For the HTRF assay, either 5 or 10 μl of supernatant from treated cells was added to 10 or 15 μl of labeled antibody pairs, for a total volume of 20 μl, and incubated for 20-24 hours at 4° C. The labeled antibody pairs were either 8000 pg B436-XL665 and 400 pg B113 Europium, for assessing Aβ40 levels, or 8000 pg B436-XL665 and 400 pg A387 Europium, for assessing Aβ42 levels, diluted in 50 mM NaPO4, 0.2% BSA, 0.5M KF, pH 7. The fluorescence was read on a BMG Rubystar at 620 nm and 665 nm.
A general note: TR-FRET usually uses a lanthanide donor and a delayed reading to cut background.
Regarding `Cc1ccc(N2CCN(C)CC2)cc1Nc1nc(-c2ccc(-n3ccnc3)cc2)cs1` [Compound 255], the EC50 is 0.2 to 1 µM. For `CCN(CC)c1ccc(F)c(Nc2nc(-c3ccc(-n4cnc(C)c4)cc3)cs2)c1` [Compound 313] the value was below 0.2 µM; for `CCc1cc(N(CC)CC)ccc1Nc1nc(-c2ccc(-n3ccnc3)cc2)cs1` [Compound 241], 1.1 to 5 µM. `COc1ccc(-c2csc(Nc3ccc(C)c(Cl)c3)n2)c(OC)c1` [Compound 194]: the EC50 lay in the range of 1.1 to 5 µM.

In the case of `CN1CCN(c2ccc(-c3csc(Nc4ccc(I)cc4)n3)cc2)CC1` [Compound 126], the EC50 is 1.1 to 5 µM. For `CCN(CC)c1cc(C)c(Nc2nc(-c3ccc(-n4ccnc4)cc3)cs2)cc1C` [Compound 292], the EC50 was below 0.2 µM. `c1nc2cc(Nc3nc(-c4ccc5c(c4)OCO5)cs3)ccc2[nH]1` [Compound 161]: the EC50 was in the range of 5.1 to 10 µM. On to `CCN(CCOC)c1ccc(Nc2nc(-c3ccc(-n4cnc(C)c4)cc3C(F)(F)F)cs2)c(C)c1` [Compound 232], for which the EC50 fell in the range of 5.1 to 10 µM.

`CCc1cccc(Nc2nc(-c3ccc(N4CCN(C)CC4)cc3)cs2)c1` [Compound 234]: the EC50 lay in the range of 1.1 to 5 µM. As to `CCOc1cc(C)c(Nc2nc(-c3ccc(-n4cnc(C)c4)cc3)cs2)cc1C` [Compound 271], the EC50 is below 0.2 µM. On to `c1cc2c(cc1Nc1nc(-c3ccc4c(c3)OCCO4)cs1)OCO2` [Compound 103], for which the EC50 lay in the range of 5.1 to 10 µM. Turning to `COc1ccc(-c2nc(Nc3cc(Cl)c(Cl)cc3Cl)sc2CC(=O)O)cc1` [Compound 187], the EC50 lay within 1.1 to 5 µM. For `c1cn(-c2ccc(-c3csc(Nc4ccc5[nH]cnc5c4)n3)cc2)cn1` [Compound 156] the value was 1.1 to 5 µM. As for `Cc1cn(-c2ccc(-c3csc(Nc4cc(C(C)C)ccc4C)n3)cn2)cn1` [Compound 327], the EC50 is below 0.2 µM.

For the compound `COc1cc(C)c(Nc2nc(-c3ccc(-n4cnc(C)c4)cc3)c(C)s2)cc1C(C)C` [Compound 297], the EC50 was below 0.2 µM. Regarding `Cc1cn(-c2ccc(-c3csc(Nc4c(Cl)cc(Cl)cc4Cl)n3)cc2)cn1` [Compound 238], the EC50 lay in the range of 1.1 to 5 µM. On to `COc1ccc(Nc2nc(-c3ccc4c(c3)OCCO4)cs2)cc1OC` [Compound 110], for which the EC50 was in the range of 5.1 to 10 µM.

As to `CCN(CC)c1cc(Nc2nc(-c3ccc(N4CCN(C)CC4)nc3)cs2)c(C)cc1C` [Compound 332], the EC50 is 1.1 to 5 µM.

As to `Cc1cn(-c2ccc(-c3csc(Nc4cc(C)c(O)cc4C)n3)cc2)cn1` [Compound 269], the EC50 was 5.1 to 10 µM. For the compound `COc1cc(-n2cnc(C)c2)ccc1-c1csc(Nc2cc(C)c(C)cc2C)n1` [Compound 263], the EC50 is 0.2 to 1 µM.

Take `CCN(CC)c1ccc(Nc2nc(-c3ccc(-n4cc(C(C)O)nn4)cc3)cs2)c(C)c1` (stereo not shown) [Compound 275]: the EC50 is 1.1 to 5 µM. The figure for `Cc1cn(-c2ccc(-c3csc(Nc4cc(N5CCCCC5)ccc4C)n3)cn2)cn1` [Compound 283] is below 0.2 µM; for `CCN(CC)c1ccc(Nc2nc(-c3ccc(-n4cnc(C)c4)cc3OC)cs2)c(C)c1` [Compound 190] it is 0.2 to 1 µM; for `CCN(CC)c1ccc(Nc2nc(-c3ccc(-n4cnc(C)c4)nc3)cs2)c(C)c1` [Compound 247] it is below 0.2 µM. For `COc1cc(Nc2nc(-c3ccc(-c4ccccn4)s3)cs2)cc(OC)c1OC` [Compound 106], the EC50 fell in the range of 5.1 to 10 µM. `Cc1cn(-c2ccc(-c3csc(Nc4cc(N5CCOCC5)ccc4C)n3)cn2)cn1` [Compound 276]: the EC50 was below 0.2 µM.

Take `CCCN(CC)c1ccc(C)c(Nc2nc(-c3ccc(-n4cnc(C)c4)cc3)cs2)c1` [Compound 337]: the EC50 was below 0.2 µM. Turning to `Cc1cn(-c2ccc(-c3csc(Nc4cc(Cl)c(Cl)cc4Cl)n3)cc2)cn1` [Compound 237], the EC50 was in the range of 0.2 to 1 µM. For the compound `Cc1cn(-c2ccc(-c3csc(Nc4cc(-n5cccc5)ccc4C)n3)cn2)cn1` [Compound 277], the EC50 was below 0.2 µM. The figure for `CSc1cccc(Nc2nc(-c3ccc(-c4ccccc4)cc3)cs2)c1` [Compound 168] is 1.1 to 5 µM. In the case of `CSc1cccc(Nc2nc(-c3ccc(-n4cnc(Br)c4)cc3)cs2)c1` [Compound 266], the EC50 lay in the range of 5.1 to 10 µM. `CCN(CC)c1cc(Nc2nc(-c3ccc(-n4ccnc4)nc3)cs2)c(C)cc1C` [Compound 320]: the EC50 was below 0.2 µM. `FC(F)(F)c1cc(N2CC=CC2)ccc1Nc1nc(-c2ccc(-n3ccnc3)cc2)cs1` [Compound 221]: the EC50 fell in the range of 1.1 to 5 µM. In the case of `COc1ccc(-c2csc(Nc3cccc4[nH]ncc34)n2)c(OC)c1` [Compound 171], the EC50 lay within 1.1 to 5 µM.

With `Cc1ccc(C(C)C)cc1Nc1nc(-c2ccc(-n3ccnc3)nc2)cs1` [Compound 325], the EC50 lay in the range of 1.1 to 5 µM.

`Cc1ccc(CO)cc1Nc1nc(-c2ccc(-n3ccnc3)cc2)cs1` [Compound 298]: the EC50 lay in the range of 0.2 to 1 µM. `N#Cc1ccc(-c2csc(Nc3cc(Cl)cc(Cl)c3)n2)cc1` [Compound 211]: the EC50 fell in the range of 10.1 to 30 µM. For `Cc1cn(-c2ccc(-c3nc(Nc4cc(-n5cccc5)ccc4C)sc3C)cc2)cn1` [Compound 278] the value was 0.2 to 1 µM; for `CN1CCN(c2ccc(-c3csc(Nc4ccc5ccccc5c4)n3)cc2)CC1` [Compound 127], 1.1 to 5 µM; for `CN1CCN(c2ccc(-c3csc(Nc4ccc(Cl)cc4)n3)cc2)CC1` [Compound 148], 0.2 to 1 µM. For the compound `Brc1cccc(Nc2nc(-c3ccc(-n4ccnc4)cc3)cs2)c1` [Compound 212], the EC50 was in the range of 1.1 to 5 µM. For `COc1cccc(CNc2nc(-c3ccc(N4CCN(C)CC4)cc3)cs2)c1` [Compound 135] the value was 1.1 to 5 µM. For `CCN(CC)c1ccc(N(CC)c2nc(-c3ccc(-n4ccnc4)cc3)cs2)c(C)c1` [Compound 176] the value was 5.1 to 10 µM. The figure for `Cc1cn(-c2ccc(-c3csc(Nc4ccc(N5CCOCC5)c(Cl)c4)n3)c(C(F)(F)F)c2)cn1` [Compound 229] is 5.1 to 10 µM; for `COc1cc(C)c(Nc2nc(-c3ccc(-n4ccnc4)cc3)cs2)cc1C(C)C` [Compound 294] it is below 0.2 µM. Take `COc1ccc(-c2csc(Nc3ccc4[nH]cnc4c3)n2)c(OC)c1` [Compound 160]: the EC50 was in the range of 0.2 to 1 µM. With `Cc1ccc(C(C)C)cc1Nc1nc(-c2ccc(-n3ccnc3)cc2)cs1` [Compound 324], the EC50 was below 0.2 µM. As for `Cc1ccc(N2CCOCC2)cc1Nc1nc(-c2ccc(-n3ccnc3)cc2)cs1` [Compound 253], the EC50 was in the range of 0.2 to 1 µM. With `CCCN(c1ccc2c(c1)OCO2)c1nc(-c2ccc(N3CCN(C)CC3)cc2)cs1` [Compound 163], the EC50 lay in the range of 5.1 to 10 µM. Consider `Cc1ccc(Nc2nc(-c3ccc(-n4ccnc4)cc3)co2)c(C)c1` [Compound 345], for which the EC50 lay within 5.1 to 10 µM. Take `CCN(CC)CCN(C)c1ccc(Nc2nc(-c3ccc(-n4ccnc4)cc3)cs2)c(C)c1` [Compound 210]: the EC50 lay within 1.1 to 5 µM.

`COc1cc(Nc2nc(-c3ccc(F)cc3)cs2)cc(OC)c1OC` [Compound 108]: the EC50 is 5.1 to 10 µM. On to `c1cc2c(cc1Nc1nc(-c3ccc4c(c3)OCO4)cs1)OCO2` [Compound 105], for which the EC50 lay in the range of 1.1 to 5 µM.

On to `CCN(CC)c1ccc(-c2csc(Nc3ccc4[nH]cnc4c3)n2)cc1` [Compound 158], for which the EC50 lay within 10.1 to 30 µM. For `Cc1cn(-c2ccc(-c3csc(Nc4ccc(N5CCOCC5)c(Cl)c4)n3)cc2)cn1` [Compound 225] the value was 1.1 to 5 µM.

`COc1cccc(Nc2nc(-c3ccc(N=Nc4ccccc4)cc3)cs2)c1` [Compound 131]: the EC50 was 10.1 to 30 µM.

Consider `CCOc1cc(C)c(Nc2nc(-c3ccc(-n4cnc(C)c4)nc3)cs2)cc1C` [Compound 287], for which the EC50 is below 0.2 µM. The figure for `CN1CCC(CNc2ccc(Nc3nc(-c4ccc(-n5ccnc5)cc4)cs3)cc2)CC1` [Compound 188] is 1.1 to 5 µM. For the compound `CCN(CC)c1ccc(N(CC)c2nc(-c3ccc(-n4cnc(C)c4)cc3)cs2)c(C)c1` [Compound 273], the EC50 fell in the range of 0.2 to 1 µM. With `CCN(CC)c1ccc(F)c(Nc2nc(-c3ccc(-n4cnc(C)c4)nc3)cs2)c1` [Compound 314], the EC50 is below 0.2 µM.

As to `Cc1cn(-c2ccc(-c3csc(Nc4cc(C)c(C)cc4C)n3)cn2)cn1` [Compound 262], the EC50 lay within 0.2 to 1 µM.

In the case of `CSc1cccc(Nc2nc(-c3ccc(-n4ccnc4)cc3)cs2)c1` [Compound 144], the EC50 is 0.2 to 1 µM. For `CN1CCN(c2ccc(-c3csc(Nc4cccc5ccccc45)n3)cn2)CC1` [Compound 333] the value was 0.2 to 1 µM. Take `COc1ccc(C)c(Nc2nc(-c3ccc(-n4cnc(C)c4)cc3)cs2)c1` [Compound 352]: the EC50 was below 0.2 µM.

Take `Cc1ccc(C)c(Nc2nc(-c3ccc(-n4cnc(C)c4)cc3)cs2)c1` [Compound 303]: the EC50 was below 0.2 µM. In the case of `Cc1ccc(N(C)C)cc1Nc1nc(-c2ccc(-n3ccnc3)cc2)cs1` [Compound 259], the EC50 was in the range of 0.2 to 1 µM. For the compound `COc1cc(C)c(Nc2nc(-c3ccc(-n4ccnc4)nc3)cs2)cc1C(C)C` [Compound 319], the EC50 is below 0.2 µM. For `CCc1cn(-c2ccc(-c3csc(Nc4ccc(N(CC)CC)cc4C)n3)cc2)cn1` [Compound 272] the value was 0.2 to 1 µM. The figure for `COc1cc(Nc2nc(-c3ccc(-c4ccccc4)s3)cs2)cc(OC)c1OC` [Compound 107] is 10.1 to 30 µM; for `CSc1cccc(Nc2nc(-c3ccc(N4CCCC4)cc3)cs2)c1` [Compound 166] it is 0.2 to 1 µM. Regarding `CCCN(CC)c1ccc(C)c(Nc2nc(-c3ccc(-n4cnc(C)c4)nc3)cs2)c1` [Compound 284], the EC50 was below 0.2 µM. `COc1ccc(-c2csc(Nc3ccc4c(c3)OCCO4)n2)c(OC)c1` [Compound 182]: the EC50 was 10.1 to 30 µM. For the compound `Cc1cn(-c2ccc(-c3nc(Nc4cc(C)c(C)cc4C)sc3C)cc2)cn1` [Compound 242], the EC50 lay within 0.2 to 1 µM.
